Results taken from US6531508B1, “Antibacterial medicinal compositions” (priority 1999, dated 2003).

What was measured:
[1] = test system: bacterial strains from dental infectious diseases; conditions: reported in the literature; increasingly resistant strains; cited from earlier work
[2] = Gastrointestinal absorption of compound 1 after oral administration (plasma AUC); type: in vivo, Sprague-Dawley rats; conditions: rat; for AUC: male, Sprague-Dawley, compound 1 as free acid in plasma
Description: Seven-week old male Sprague-Dawley rats orally received 70.5 mg/kg (57.1 mg (potency)/kg) of compound 1 and 57.1 mg/kg of disodium ethylenediaminetetraacetate. Controls orally received 70.5 mg/kg of compound 1 alone. At 0.1-10 hours after administration, blood was collected. The concentration of compound 1 as free acid in plasma was determined by high-performance liquid chromatography. For determination, plasma was used after pretreatment. That is, 0.2 mL of plasma was stirred with 0.2 mL of acetonitrile and then centrifuged at 4° C., 12000 rpm for 15 min. Two hundreds μL of this supernatant was diluted in 800 μL of 10 mM phosphate buffer, and 200 μL of this dilution was applied on a high-performance liquid chromatography column. The chromatography conditions were as follows. A stainless steel high-performance liquid chromatographic column packed with octadecylsilyl silica gel was used. The column temperature was room temperature. The mobile phase consisted of a binder containing 680 mL of a 20 mM aqueous sodium dihydrogenphosphate solution adjusted at pH 2 with phosphoric acid and 320 mL of acetonitrile. The flow rate was controlled at 1 mL/min. For detection, a UV absorption spectrometer was used at a wavelength of 318 nm.

[3] = test system: methicillin-sensitive Staphylococcus aureus (MSSA), Streptococcus pyrogenes and Streptococcus pneumoniae, penicillin-resistant pneumococci (PRSP), oral …; conditions: reported in the literature; gram-positive bacteria incl. strains where conventional β-lactams are ineffective; cited from earlier work
Porphyromonas gingivalis = conditions: reported in the literature; cited from earlier work

For C[C@@H](O)[C@H]1C(=O)N2C(C(=O)O)=C([C@H]3CCCO3)S[C@H]12 [compound 1, Sodium (+)-(5R,6S)-6-[(R)-1-hydroxyethyl]-7-oxo-3-[(R)-2-tetrahydrofuryl]-4-thia-1-azabicyclo[3.2.0]hept-2-ene-2-carboxylate 5/2 hydrate], the Antibacterial activity [1] is given as “potent antibacterial activity”, the “Change of AUC versus control group” value ([2]; group coadministered with disodium ethylenediaminetetraacetate compared with compound 1 alone) is given as “approximately doubled” and the AUC ([2]; 70.5 mg/kg compound 1 with 57.1 mg/kg disodium ethylenediaminetetraacetate) is given as 24.8 ± 9.3 µg·h/mL. The AUC ([2]; control group: 70.5 mg/kg compound 1 alone) was 12.6 ± 5.7 µg·h/mL, the Antibacterial activity [3] was “potent antibacterial activity” and the Antibacterial activity (Porphyromonas gingivalis) was “potent antibacterial activity”.
